Laboratory results taken from ChEMBL document CHEMBL1909499, “Protective effects of amentoflavone on Lamin A-dependent UVB-induced nuclear aberration in normal human fibroblasts” (Bioorg Med Chem Lett, 2011).
Activity calls are given as the source filed them. The rule behind the calls is not given here.

Assays:
Fibroblast [1] = assay: Antiaging activity in human fibroblasts assessed as reduction in UVB-induced phospho-H2AX protein level after 6 days by Western blotting method; assay type: functional, cell-based
Fibroblast [2] = assay: Antiaging activity in human fibroblasts assessed as reduction of UVB-induced nucleus deformation after 6 days by confocal microscopy analysis; assay type: functional, cell-based
Fibroblast [3] = assay: Antiaging activity in fibroblasts isolated from human assessed as reduction in UVB-induced phospho-H2AX protein level after 6 days by Western blotting method; assay type: functional, cell-based
Fibroblast [4] = assay: Antiaging activity in human fibroblasts assessed as reduction in UVB-induced lamin A protein level after 6 days by Western blot method; assay type: functional, cell-based
Fibroblast [5] = assay: Antiaging activity in human fibroblasts assessed as reduction in UVB-induced phospho-H2AX protein level after 6 days by confocal microscopy analysis; assay type: functional, cell-based
[6] = Cytotoxicity against human UVB-induced fibroblasts assessed as cell viability; assay type: cell-based; settings: fibroblast

SMILES: O=c1cc(-c2ccc(O)c(-c3c(O)cc(O)c4c(=O)cc(-c5ccc(O)cc5)oc34)c2)oc2cc(O)cc(O)c12 [AMENTOFLAVONE]
- Activity (Fibroblast [1]): Dose-dependent effect
- Activity (Fibroblast [2]): Active
- Activity (Fibroblast [3]): Dose-dependent effect
- Activity (Fibroblast [4]): Dose-dependent effect
- Activity (Fibroblast [5]): Active
- Activity [6]: Non-toxic
